Data as given in patent US9623021B2, “Nuclear receptor binding agents” (GTX, Inc., priority 2007, dated 2017).
Entries after “also recorded” stand apart in the source; their conditions may differ. Like-named read-outs stand apart in the source and are kept apart here.

How the values were obtained:
[1] = target: ERβ ligand binding domain (Homo sapiens (Human), UniProt Q92731); assay: Competitive [3H]-estradiol radioligand binding, ERβ (Example 21); details: for Ki Ratio (ER-α/ER-β): ratio between the binding constants of ER-α and ER-β
Chain of ERβ ligand binding domain (Q92731 264-498, species assumed): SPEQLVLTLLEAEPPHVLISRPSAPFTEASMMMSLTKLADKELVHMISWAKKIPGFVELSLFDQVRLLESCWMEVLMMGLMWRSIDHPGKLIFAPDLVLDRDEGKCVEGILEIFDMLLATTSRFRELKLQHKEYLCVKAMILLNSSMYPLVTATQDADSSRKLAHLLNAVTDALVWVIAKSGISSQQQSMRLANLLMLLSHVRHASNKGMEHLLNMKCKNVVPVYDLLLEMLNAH
Protocol: (§1) ER binding affinity was determined via one of the following methods:
(§2) Briefly, the incubation mixture was filtered through a high affinity protein binding filter, and washed several times to remove any unbound radioactivity. The filter plate was air dried and sealed on the bottom.
(§3) Following incubation, plates were harvested onto GF/B filters and radioactivity was measured with a TopCount NXT (PerkinElmer). Nonspecific binding was subtracted from total binding to yield specific binding.

ER-α = ER-α (Rattus norvegicus (Rat), UniProt P06211); assay type: cell-based; details: for Estradiol activity at 100 nM, ER-α: 100 nM NRBA compared to 1 nM estradiol
Protocol: COS or 293 cells were plated in DME without phenol red+10% cs FBS at 90,000 cells per well in 24 well plates, and were transfected with 0.25 μg of the vector “ERE-LUC”, where a firefly luciferase gene was driven by two estrogen responsive elements and 0.02 μg of the control CMV-LUC, Renilla where a luciferase gene was driven by a CMV promoter. […] All the receptors were cloned from rat tissue into the PCR3.1 vector backbone. Twenty four hours post transfection, cells were treated with compounds of this invention, estrogen, DHT, and other NRBAs or combinations thereof. Cells were harvested 48 hrs after transfection, and assayed for firefly and Renilla luciferase activity.

ER-β = ER-β (Rattus norvegicus (Rat), UniProt Q62986); assay: ER-β transactivation, ERE-LUC reporter in COS or 293 cells (Example 21B); assay type: cell-based
Chain of ER-β (Q62986 whole entry): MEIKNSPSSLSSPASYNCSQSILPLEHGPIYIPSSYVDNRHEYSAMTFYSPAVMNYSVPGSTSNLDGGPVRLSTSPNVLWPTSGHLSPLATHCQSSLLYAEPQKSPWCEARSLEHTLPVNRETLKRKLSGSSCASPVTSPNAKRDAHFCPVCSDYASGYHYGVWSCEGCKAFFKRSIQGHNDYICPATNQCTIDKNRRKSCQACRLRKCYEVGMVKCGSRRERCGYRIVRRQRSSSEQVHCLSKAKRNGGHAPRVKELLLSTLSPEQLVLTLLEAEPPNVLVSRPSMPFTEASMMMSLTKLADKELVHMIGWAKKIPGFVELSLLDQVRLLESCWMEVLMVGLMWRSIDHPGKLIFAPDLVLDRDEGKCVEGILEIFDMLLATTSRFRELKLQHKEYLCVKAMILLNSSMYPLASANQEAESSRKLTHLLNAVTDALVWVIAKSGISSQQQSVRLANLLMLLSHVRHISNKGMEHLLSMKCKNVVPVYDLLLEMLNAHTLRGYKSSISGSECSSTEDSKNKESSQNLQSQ

ARPE-19 cells = assay: Fluorescent detection of intracellular ROS in ARPE-19 cells (tBH oxidative stress); details: 150 μM tBH, FIG. 20B
[2] = target: ERα ligand binding domain (Homo sapiens (Human), UniProt P03372); assay: Competitive [3H]-estradiol radioligand binding, ERα (Example 21)
Chain of ERα ligand binding domain (P03372 whole entry, looked up, species assumed, the tested form may be a part): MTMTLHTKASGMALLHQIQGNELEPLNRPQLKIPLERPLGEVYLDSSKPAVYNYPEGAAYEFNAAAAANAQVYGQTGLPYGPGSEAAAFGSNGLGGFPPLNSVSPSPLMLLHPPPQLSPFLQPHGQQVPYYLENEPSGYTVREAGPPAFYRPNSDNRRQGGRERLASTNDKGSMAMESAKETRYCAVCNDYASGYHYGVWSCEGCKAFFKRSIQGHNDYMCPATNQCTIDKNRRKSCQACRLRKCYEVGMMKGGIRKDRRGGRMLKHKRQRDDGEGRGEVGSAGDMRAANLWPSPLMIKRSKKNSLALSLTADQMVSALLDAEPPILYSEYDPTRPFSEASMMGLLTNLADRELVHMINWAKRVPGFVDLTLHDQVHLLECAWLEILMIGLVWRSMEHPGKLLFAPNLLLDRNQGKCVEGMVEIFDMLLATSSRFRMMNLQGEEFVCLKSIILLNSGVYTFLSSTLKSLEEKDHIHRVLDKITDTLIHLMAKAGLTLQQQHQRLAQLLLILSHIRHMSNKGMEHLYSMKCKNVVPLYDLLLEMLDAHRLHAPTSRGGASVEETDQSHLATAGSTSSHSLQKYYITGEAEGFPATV
Protocol: as §1, §2, §3

uterus = assay: Uterotropic assay; details: 50 μg/kg/day s.c., 3 days
Protocol: Statistical differences among groups were evaluated by one-way ANOVA. Rats were treated for 3 consecutive days and then sacrificed 24 h after the last dose. The body of the uterus was cut just above its junction with the cervix and at the junction of the uterine horns with the ovaries. The uterus was weighed with and without intrauterine fluid. Statistical comparisons were made between the weights of empty uteri.

SHP promoter = assay: SHP promoter-luciferase in HEK-293 cells transfected with FXR and ER-β; assay type: cell-based; details: FXR and ER-β plasmids, FIG. 12E right panel
Protocol: FIG. 12 depict the effect of ER-β ligand on PPAR-γ function through ligand binding domain (LBD). (A). HEK-293 cells were transfected with 0.25 μg PPRE-LUC, 5 ng CMV-renilla LUC and the indicated receptors (PPAR-γ and ER-β for the left panel and PPAR-α and ER-β for the right panel). The cells were treated 24 hrs after transfection with the indicated ligands and harvested 48 hrs after transfection and firefly luciferase activity was measured and normalized to renilla luciferase. (B). H475 in ER-β LBD is important for its function. H475 in ER-β LBD was mutated to alanine (A) using a site directed mutagenesis kit. Transactivation assay was performed as described in panel A in HEK-293 cells with a titration of ER-β ligands in wild type or ER-β H475A. (C). […] HEK-293 cells were transfected with 0.25 μg PPRE-LUC, 5 ng CMV-renilla LUC and 50 ng of the indicated receptors (PPAR-γ or PPAR-γ and wild type ER-β or PPAR-γ and ER-β H475A). The cells were treated 24 hrs after transfection with the indicated ligands and harvested 48 hrs after transfection and firefly luciferase activity was measured and normalized to renilla luciferase. (D). […] HepG2 cells were transfected with 0.25 μg PPRE-LUC, 5 ng CMV-renilla LUC, 0.5 μg PGC-1 or vector backbone and 100 ng of the indicated receptors (PPAR-γ or PPAR-γ and wild type ER-β or PPAR-γ and ER-β H475A for top panels and PPAR-α or PPAR-α and ER-β for bottom panel). The cells were treated 24 hrs after transfection with the indicated ligands and harvested 48 hrs after transfection and firefly luciferase activity was measured and normalized to renilla luciferase. (E). SHP-1 is an ER-β specific target gene. HEK-293 cells were transfected with 0.25 μg SHP-LUC, 5 ng CMV-renilla LUC and 50 ng of the indicated receptors (FXR and ER-α for the left panel and FXR and ER-β for the right panel). The cells were treated 24 hrs after transfection with the indicated ligands and harvested 48 hrs after transfection and firefly luciferase activity was measured and normalized to renilla luciferase. […]

O=c1c2ccc(O)cc2c(Cl)cn1-c1ccc(O)cc1 [Compound 12f, 4-chloro-6-hydroxy-2-(4-hydroxyphenyl)-isoquinolin-1(2H)-one]
Ki Ratio (ER-α/ER-β) [1]: 61

O=c1c2ccc(O)cc2c(I)cn1-c1ccc(O)cc1 [Compound 12h, 6-hydroxy-2-(4-hydroxyphenyl)-4-iodoisoquinolin-1(2H)-one]
Ki Ratio (ER-α/ER-β) [1]: 22

O=c1c2c(O)cc(O)cc2ccn1-c1ccc(O)cc1 [Compound 12l, 6,8-dihydroxy-2-(4-hydroxyphenyl)-isoquinolin-1(2H)-one]
ER-α RLU/RenRLU (ER-α; dose 0.1 nM): 0.07 RLU/RenRLU | ER-α RLU/RenRLU (ER-α; dose 1 nM): 0.07 RLU/RenRLU | ER-α RLU/RenRLU (ER-α; dose 10 nM): 0.07 RLU/RenRLU | ER-α RLU/RenRLU (ER-α; dose 100 nM): 0.12 RLU/RenRLU | ER-α RLU/RenRLU (ER-α; dose 1000 nM): 0.24 RLU/RenRLU | ER-β RLU/RenRLU (ER-β; dose 0.1 nM): 0.06 RLU/RenRLU | ER-β RLU/RenRLU (ER-β; dose 1 nM): 0.07 RLU/RenRLU | ER-β RLU/RenRLU (ER-β; dose 10 nM): 0.16 RLU/RenRLU | ER-β RLU/RenRLU (ER-β; dose 100 nM): 0.46 RLU/RenRLU | ER-β RLU/RenRLU (ER-β; dose 1000 nM): 0.55 RLU/RenRLU

Oc1ccc(-n2ccc3cc(O)cc(O)c3c2=S)cc1 [Compound 12p, 2-(4-hydroxyphenyl)-6,8-dihydroxy-isoquinoline-1(2H)-thione]
Ki [1]: 17 nM | Ki Ratio (ER-α/ER-β) [1]: 8 | Estradiol activity at 100 nM, ER-α (ER-α): 45%

COc1cc(O)c2c(=O)n(-c3ccc(O)cc3)ccc2c1C#N [Compound 12q, 8-hydroxy-2-(4-hydroxyphenyl)-6-methoxy-1-oxo-1,2-dihydroisoquinoline-5-carbonitrile]
Estradiol activity at 100 nM, ER-α (ER-α): 25%

O=c1c2c(O)cc(O)cc2ccn1-c1ccc(O)c(F)c1 [Compound 12s, 2-(3-fluoro-4-hydroxyphenyl)-6,8-dihydroxyisoquinolin-1(2H)-one]
Ki Ratio (ER-α/ER-β) [1]: 25 | Estradiol activity at 100 nM, ER-α (ER-α): 29%

COc1cc(O)c2c(=O)n(-c3ccc(O)cc3)cc(Br)c2c1 [Compound 12v, 4-bromo-8-hydroxy-2-(4-hydroxyphenyl)-6-methoxyisoquinolin-1(2H)-one]
Estradiol activity at 100 nM, ER-α (ER-α): 17%

O=c1c2c(O)cc(O)cc2c(Br)cn1-c1ccc(O)c(F)c1 [Compound 12z, 4-bromo-6,8-dihydroxy-2-(3-fluoro-4-hydroxyphenyl)isoquinolin-1(2H)-one]
prevention of ROS formation / oxidative damage (ARPE-19 cells): able to prevent ROS formation as well as estradiol; also recorded: protected ARPE-19 cells from oxidative damage | Ki Ratio (ER-α/ER-β) [1]: 12 | Ki [2]: 40 nM

C=Cc1cn(-c2ccc(O)cc2)c(=O)c2c(O)cc(O)cc12 [Compound 14l, 6,8-dihydroxy-2-(4-hydroxyphenyl)-4-vinylisoquinolin-1(2H)-one]
prevention of ROS formation / oxidative damage (ARPE-19 cells): protected ARPE-19 cells from oxidative damage | Ki [1]: 6 nM | Estradiol activity at 100 nM, ER-α (ER-α): 50% | Ki [2]: 76 nM

COc1ccc(-c2cn(-c3ccc(O)cc3)c(=O)c3ccc(O)cc23)cc1 [Compound 15b, 6-hydroxy-2-(4-hydroxyphenyl)-4-(4-methoxyphenyl)isoquinolin-1(2H)-one]
Ki Ratio (ER-α/ER-β) [1]: 8.3

C[C@]12CC[C@@H]3c4ccc(O)cc4CC[C@H]3[C@@H]1CC[C@@H]2O [Estradiol]
uterine growth / uterine weight (uterus): stimulated the proliferation of uterus significantly

CC(C)c1onc(-c2c(Cl)cccc2Cl)c1COc1ccc(/C=C/c2cccc(C(=O)O)c2)c(Cl)c1 [GW4064, reference compound]
SHP activity (SHP promoter): increased its activity significantly
